Structures are written as SMILES. Numbers after ± are expanded uncertainties.

A short description of series [1]: Molar enthalpy of transition or fusion. The conditions noted are these: Crystal; DSC.
The conditions of series [2]: Crystal; DTA.

For `Cc1nc(C)c(C)nc1C` [tetramethylpyrazine], the “Molar enthalpy of transition or fusion” value in series [1] worked out at 3.92 ± 0.406 kcal/mol. Besides, in series [2], the Normal melting temperature was determined as 85.40 ± 1.1 °C.

These data come from the NIST ThermoML archive (doi:10.1021/acs.jced.8b00888).
